Measurements: US10703746B2, “Mutant IDH1 inhibitors useful for treating cancer” (THE UNITED STATES OF AMERICA, AS REPRESENTED BY THE …, priority 2014, dated 2020)

Columns and labels:
IDH1 R132H = IDH1 R132H (Homo sapiens, UniProt O75874, R132H); experiment: IDH1 R132H enzymatic assay (NADPH depletion coupled to diaphorase/resazurin); type: biochemical; conditions: IDH1 R132H enzymatic inhibition, IC50 class
IDH1 R132C = IDH1 R132C (Homo sapiens, UniProt O75874, R132C); experiment: IDH1 R132C enzymatic assay (NADPH depletion coupled to diaphorase/resazurin); type: biochemical; conditions: IDH1 R132C enzymatic inhibition, IC50 class
Chain of IDH1 R132C (O75874 whole entry R132C): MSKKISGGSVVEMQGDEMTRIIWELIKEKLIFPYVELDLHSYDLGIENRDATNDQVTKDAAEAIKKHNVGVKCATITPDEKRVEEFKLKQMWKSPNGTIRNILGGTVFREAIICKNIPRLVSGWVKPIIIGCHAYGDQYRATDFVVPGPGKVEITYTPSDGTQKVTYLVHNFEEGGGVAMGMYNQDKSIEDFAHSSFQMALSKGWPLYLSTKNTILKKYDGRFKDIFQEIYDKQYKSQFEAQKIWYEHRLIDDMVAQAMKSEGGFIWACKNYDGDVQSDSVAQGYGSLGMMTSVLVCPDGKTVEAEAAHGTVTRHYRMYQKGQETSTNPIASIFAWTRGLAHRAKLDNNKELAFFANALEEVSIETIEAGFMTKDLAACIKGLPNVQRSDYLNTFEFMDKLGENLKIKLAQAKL
Procedure, shortened: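 NADPH depletion, read via diaphorase/resazurin coupling, after adding substrate at 0.6 mM α-KG and 0.012 mM NADPH. Beforehand, 0.00032 mg/mL enzyme sat with compound 30 min at room temperature in pH 6.5 potassium phosphate buffer with MgCl2, glycerol and BSA.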

Chain of IDH1 R132H (O75874 whole entry R132H): as the sequence (O75874 whole entry R132C) above, with C132H counted along it

Structure (SMILES)	IC50 (IDH1 R132H) [nM]	IC50 (IDH1 R132C) [nM]
CCc1cccc(CC)c1-n1c(CC(C)C)c(C(=O)N2CCNC(c3ccccc3)C2)cc(-c2nc(-c3ccc(Cl)cc3)cs2)c1=O (centres unmarked) [Compound 202]	300 to 1000	< 300
COc1ccccc1Cn1c2c(cc(-c3nc(-c4ccc(Cl)cc4)cs3)c1=O)C(=O)CC(C)(C)C2 [Compound 203]	1000 to 5000	1000 to 5000
COc1ccc(-c2csc(-c3cc4c(n(-c5ccccc5C(F)(F)F)c3=O)CC(C)(C)CC4=O)n2)cc1 [Compound 204]	1000 to 5000	300 to 1000
CCc1cccc(CC)c1-n1c2c(cc(-c3nc(-c4cccc(Cl)c4)cs3)c1=O)C(=O)CC(C)(C)C2 [Compound 205]	> 20000	1000 to 5000
CCc1cccc(CC)c1-n1c(CC(C)C)c(C(=O)N2CC(C(=O)O)NCC2C)cc(-c2nc(-c3ccc(Cl)cc3)cs2)c1=O (centres unmarked) [Compound 206]	300 to 1000	< 300
CCc1cccc(CC)c1-n1c(C)c(C(=O)N2CCC(NC)C2)cc(-c2nc(-c3ccc(Cl)cc3)cs2)c1=O (centres unmarked) [Compound 207]	1000 to 5000	1000 to 5000
CCc1cccc(CC)c1-n1c2c(cc(-c3nc(C4=CCN(C)CC4)c(C)s3)c1=O)C(=O)CC(C)(C)C2 [Compound 208]	> 20000	5000 to 20000
CCc1cccc(CC)c1-n1c2c(cc(-c3nc(-c4cccc(F)c4)cs3)c1=O)C(=O)CC(C)(C)C2 [Compound 209]	1000 to 5000	1000 to 5000
CCc1cccc(CC)c1-n1c(CC(C)C)c(C(=O)N2CCNCC2)cc(-c2nc(-c3ccc(C(F)(F)F)cc3)c(C)s2)c1=O [Compound 210]	300 to 1000	< 300
CCc1cccc(CC)c1-n1c(CC(C)C)c(C(=O)N2CCNCC2)cc(-c2nc(-c3ccc(N4CCOCC4)cc3)c(C)s2)c1=O [Compound 211]	5000 to 20000	5000 to 20000
CCOc1ccccc1-n1c2c(cc(-c3nc(-c4ccc(Cl)cc4)cs3)c1=O)C(=O)CC(C)(C)C2 [Compound 212]	300 to 1000	300 to 1000
CCc1cccc(CC)c1-n1c2c(cc(-c3nc(-c4ccccc4Cl)cs3)c1=O)C(=O)CC(C)(C)C2 [Compound 213]	1000 to 5000	1000 to 5000
CCc1cccc(CC)c1-n1c(C)c(C(=O)N[C@@H]2CCCC[C@@H]2N)cc(-c2nc(-c3ccc(Cl)cc3)cs2)c1=O [Compound 214]	5000 to 20000	300 to 1000
Cc1cccc(C)c1-n1c2c(cc(-c3nc(-c4ccc(Cl)cc4)cs3)c1=O)C(=O)CC(C)(C)C2 [Compound 215]	1000 to 5000	1000 to 5000
CC1(C)CC(=O)c2cc(-c3nc(-c4ccc(Cl)cc4)cs3)c(=O)n(C3CCCCC3)c2C1 [Compound 216]	> 20000	5000 to 20000
CCc1cccc(CC)c1-n1c(CC(C)C)c(C(=O)N[C@@H]2CCC[C@H]2O)cc(-c2nc(-c3ccc(Cl)cc3)cs2)c1=O [Compound 217]	1000 to 5000	300 to 1000
CCc1cccc(CC)c1-n1c(C(C)C)c(C(=O)NCCO)cc(-c2nc(-c3ccc(Cl)cc3)cs2)c1=O [Compound 218]	< 300	300 to 1000
CCc1cccc(CC)c1-n1c(C)c(C(=O)NC2CCC(O)CC2)cc(-c2nc(-c3ccc(Cl)cc3)cs2)c1=O (centres unmarked) [Compound 219]	1000 to 5000	1000 to 5000
CCc1cccc(CC)c1-n1c(C)c(C(=O)N2CCN[C@@H](CO)C2)cc(-c2nc(-c3ccc(Cl)cc3)cs2)c1=O [Compound 220]	< 300	300 to 1000
CCc1cccc(CC)c1-n1c(CC(C)C)c(C(=O)NC[C@H](N)C(=O)O)cc(-c2nc(-c3ccc(Cl)cc3)cs2)c1=O [Compound 221]	1000 to 5000	300 to 1000
CCc1cccc(CC)c1-n1c(C(C)C)c(C(=O)N2CCN[C@@H](C(=O)OC)C2)cc(-c2nc(-c3ccc(Cl)cc3)cs2)c1=O [Compound 222]	1000 to 5000	< 300
CCc1cccc(CC)c1-n1c(C)c(C(=O)N2CCCC(N)C2)cc(-c2nc(-c3ccc(Cl)cc3)cs2)c1=O (centres unmarked) [Compound 223]	1000 to 5000	< 300
CCc1cccc(CC)c1-n1c(CC(C)C)c(C(=O)N2CCNCC2)cc(-c2nc(-c3ccc(OC)cc3)c(C)s2)c1=O [Compound 224]	300 to 1000	300 to 1000
COc1ccc(OC)c(-n2c3c(cc(-c4nc(-c5ccccc5)cs4)c2=O)C(=O)CC(C)(C)C3)c1 [Compound 225]	1000 to 5000	1000 to 5000
CCc1cccc(CC)c1-n1c2c(cc(-c3nc(-c4ccccc4F)cs3)c1=O)C(=O)CC(C)(C)C2 [Compound 226]	1000 to 5000	1000 to 5000
CC1(C)CC(=O)c2cc(-c3nc(-c4ccc(Cl)cc4)cs3)c(=O)n(-c3ccccc3C(=O)O)c2C1 [Compound 227]	5000 to 20000	5000 to 20000
CCc1cccc(CC)c1-n1c2c(cc(-c3nc(-c4cccc(C(F)(F)F)c4)cs3)c1=O)C(=O)CC(C)(C)C2 [Compound 228]	> 20000	> 20000
CCc1cccc(CC)c1-n1c(C(C)C)c(C(=O)N2CCN[C@@H](CO)C2)cc(-c2nc(-c3ccc(Cl)cc3)cs2)c1=O [Compound 229]	300 to 1000	< 300

Structure (SMILES)	IC50 (IDH1 R132H) [nM]	IC50 (IDH1 R132C) [nM]
CCc1cccc(CC)c1-n1c2c(cc(-c3nc(-c4ccccc4C(F)(F)F)cs3)c1=O)C(=O)CC(C)(C)C2 [Compound 230]	5000 to 20000	1000 to 5000
CCc1cccc(CC)c1-n1c(CC(C)C)c(C(=O)N2CCNCC2)cc(-c2nc(-c3ccc(Cl)cc3)cs2)c1=O [Compound 231]	< 300	< 300
CCc1cccc(CC)c1-n1c(CC(C)C)c(C(=O)NCC(O)c2ccccc2)cc(-c2nc(-c3ccc(Cl)cc3)cs2)c1=O (centres unmarked) [Compound 232]	300 to 1000	< 300
CCc1cccc(CC)c1-n1c2c(cc(-c3nc(-c4ccc(C)cc4)cs3)c1=O)C(=O)CC(C)(C)C2 [Compound 233]	300 to 1000	300 to 1000
CCc1cccc(CC)c1-n1c(C(C)C)c(C(=O)N2CCN[C@@H](C)C2)cc(-c2nc(-c3ccc(Cl)cc3)cs2)c1=O [Compound 234]	1000 to 5000	300 to 1000
CCc1cccc(CC)c1-n1c(CC(C)C)c(C(=O)N2CCNCC2)cc(-c2nc(-c3ccc(C#N)cc3)c(C)s2)c1=O [Compound 235]	< 300	< 300
CCc1cccc(CC)c1-n1c(CC)c(C(=O)O)cc(-c2nc(-c3ccc(Cl)cc3)cs2)c1=O [Compound 236]	1000 to 5000	5000 to 20000
CCc1cccc(CC)c1-n1c(C)c(C(=O)NC2CCC(N)CC2)cc(-c2nc(-c3ccc(Cl)cc3)cs2)c1=O (centres unmarked) [Compound 237]	5000 to 20000	5000 to 20000
CCc1cccc(CC)c1-n1c(CC(C)C)c(C(=O)N2CCNCC2)cc(-c2nc(-c3ccc(CN4CCOCC4)cc3)c(C)s2)c1=O [Compound 238]	5000 to 20000	5000 to 20000
CCc1cccc(CC)c1-n1c2c(cc(-c3nc(-c4cnn(C)c4)c(C)s3)c1=O)C(=O)CC(C)(C)C2 [Compound 239]	1000 to 5000	1000 to 5000
CCc1cccc(CC)c1-n1c2c(cc(-c3nc(-c4cccc(C)c4)cs3)c1=O)C(=O)CC(C)(C)C2 [Compound 240]	5000 to 20000	1000 to 5000
CC1(C)CC(=O)c2cc(-c3nc(-c4ccc(Cl)cc4)cs3)c(=O)n(-c3ccccc3C(C)(C)C)c2C1 [Compound 241]	1000 to 5000	300 to 1000
CCc1cccc(CC)c1-n1c(C)c(C(=O)N2CC(O)C2)cc(-c2nc(-c3ccc(Cl)cc3)cs2)c1=O [Compound 242]	1000 to 5000	1000 to 5000
CCc1cccc(CC)c1-n1c(CC(C)C)c(C(=O)N2CCCC2CO)cc(-c2nc(-c3ccc(Cl)cc3)cs2)c1=O (centres unmarked) [Compound 243]	1000 to 5000	1000 to 5000
COc1ccc(OC)c(-n2c3c(cc(-c4nc(-c5ccc(Cl)cc5)cs4)c2=O)C(=O)NCC3)c1 [Compound 244]	1000 to 5000	1000 to 5000
CCc1cccc(CC)c1-n1c(C)c(C(=O)N2CCC(N)C2)cc(-c2nc(-c3ccc(Cl)cc3)cs2)c1=O (centres unmarked) [Compound 245]	1000 to 5000	1000 to 5000
Cc1cccc(O)c1-n1c2c(cc(-c3nc(-c4ccc(Cl)cc4)cs3)c1=O)C(=O)CC(C)(C)C2 [Compound 246]	1000 to 5000	1000 to 5000
CCc1cccc(CC)c1-n1c(C(C)C)c(C(=O)N2CCN[C@H](C(=O)OC)C2)cc(-c2nc(-c3ccc(Cl)cc3)cs2)c1=O [Compound 247]	5000 to 20000	1000 to 5000
CC1(C)CC(=O)c2cc(-c3nc(-c4ccc(Cl)cc4)cs3)c(=O)n(-c3ccccc3N3CCOCC3)c2C1 [Compound 248]	1000 to 5000	300 to 1000
CCc1cccc(CC)c1-n1c2c(cc(-c3nc(-c4cccc(O)c4)cs3)c1=O)C(=O)CC(C)(C)C2 [Compound 249]	1000 to 5000	1000 to 5000
CCc1cccc(CC)c1-n1c(C)c(C(=O)N2CCCC(O)C2)cc(-c2nc(-c3ccc(Cl)cc3)cs2)c1=O (centres unmarked) [Compound 250]	1000 to 5000	1000 to 5000
CCc1cccc(CC)c1-n1c2c(cc(-c3nc(-c4ccc(Cl)cc4)c(C)s3)c1=O)C(=O)CC(C)(C)C2 [Compound 251]	300 to 1000	< 300
CCc1cccc(CC)c1-n1c(C(C)C)c(C(=O)N2CCN[C@H](CO)C2)cc(-c2nc(-c3ccc(Cl)cc3)cs2)c1=O [Compound 252]	300 to 1000	300 to 1000
COc1ccc(OC)c(-n2c3c(cc(-c4nc(-c5ccc(Cl)cc5)cs4)c2=O)C(=O)CN(C)C3)c1 [Compound 253]	1000 to 5000	1000 to 5000
COC(=O)c1ccccc1-n1c2c(cc(-c3nc(-c4ccc(Cl)cc4)cs3)c1=O)C(=O)CC(C)(C)C2 [Compound 254]	300 to 1000	300 to 1000
CC1(C)CC(=O)c2cc(-c3nc(-c4ccncc4)cs3)c(=O)n(-c3ccccc3C(F)(F)F)c2C1 [Compound 255]	1000 to 5000	1000 to 5000
CC(C)COc1ccccc1-n1c2c(cc(-c3nc(-c4ccc(Cl)cc4)cs3)c1=O)C(=O)CC(C)(C)C2 [Compound 256]	300 to 1000	300 to 1000
